Patent publication US8937193B2, “Apogossypolone derivatives as anticancer agents” (Sanford-Burnham Medical Research Institute, priority 2009, dated 2015)
Several values for one entry are separate records, joined by “and”; a condition that tells them apart may be missing. Equal entries are not always repeated. Entries after “also recorded” stand apart in the source; their conditions may differ.

What was measured:
Bcl-XL = Bcl-XL (Homo sapiens (Human), UniProt Q07817); assay: Fluorescence polarization competitive binding assay (FPA), Bcl-XL; conditions: displacement of BH3 peptide
Chain of Bcl-XL (Q07817 1-211): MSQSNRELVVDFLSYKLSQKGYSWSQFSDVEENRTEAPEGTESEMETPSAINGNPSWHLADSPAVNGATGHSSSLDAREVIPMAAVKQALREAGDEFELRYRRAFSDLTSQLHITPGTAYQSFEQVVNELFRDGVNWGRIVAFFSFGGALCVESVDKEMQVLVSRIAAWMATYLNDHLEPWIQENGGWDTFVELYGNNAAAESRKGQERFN
Procedure: For competitive binding assays, 100 nM GST-BCL-XL ΔTM protein was preincubated with the tested compound at varying concentrations in 47.5 μL PBS (pH=7.4) in 96-well black plates at room temperature for 10 min, then 2.5 μL of 100 nM FITC-labeled Bak BH3 peptide was added to produce a final volume of 50 μL. The wild-type and mutant Bak BH3 peptides were included in each assay plate as positive and negative controls, respectively. After 30 min incubation at room temperature, the polarization values in millipolarization units were measured at excitation/emission wavelengths of 480/535 nm with a multilabel plate reader (PerkinElmer). IC50 was determined by fitting the experimental data to a sigmoidal dose-response nonlinear regression model (SigmaPlot 10.0.1, Systat Software, Inc., San Jose, Calif., USA). Data reported are mean of three independent experiments±standard error (SE). […] Fluorescence polarization was measured after 10 min.

[1] = In vitro plasma stability; conditions: for degraded after 1 hour incubation in rat plasma: rat plasma (preparations); for Plasma Stability (T = 40 mins): Table 4
Excerpt: (§3) To test the pharmacological properties of the compounds of Formula I, the in vitro plasma stability, microsomal stability, and cell membrane permeability may be determined.

PC3 cell line = assay: ATP-LITE cell viability assay, PC3; format: cell-based; conditions: Homo sapiens, PC-3, 72 h, 3 days
Procedure: (§1) The activity of the compounds against human cancer cell lines (PC3, H460, H1299) were assessed by using the ATP-LITE assay (PerkinElmer). All cells were seeded in either […] or RPMI1640 medium with 5 mM L-glutamine supplemented with 5% fetal bovine serum (Mediatech Inc.), penicillin and streptomycin (Omega). For maintenance, cells were cultured in 5% FBS. Cells plated into 96 well plates at varying initial densities depending on doubling time. H460 and H1299 plated at 2000 cells/well and PC3 at 3000 cells/well. Compounds were diluted to final concentrations with 0.1% DMSO. Prior to dispensing compounds onto cells, fresh 5% media was placed into wells. Administration of compounds occurred 24 hours after seeding into the fresh media. Cell viability was evaluated using ATP-LITE reagent (PerkinElmer) after 72 hours of treatment. Data were normalized to the DMSO control-treated cells using Prism version 5.01 (Graphpad Software).

H460 cell line = assay: ATP-LITE cell viability assay, H460; format: cell-based; conditions: Homo sapiens, NCI-H460, 72 h, 3 days
Procedure: (§2) The activity of the compounds of Formula I against human cancer cell lines (PC3ML, H460, H1299, RS11846) may be assessed by using the ATP-LITE assay (PerkinElmer). All cells are seeded in either F12 or RPMI1640 medium with 5 mM L-glutamine supplemented with 5% fetal bovine serum (Mediatech Inc.), penicillin and streptomycin (Omega). For maintenance, cells are cultured in 5% FBS. Cells plated into 96 well plates at varying initial densities depending on doubling time. H460 and H1299 plated at 2000 cells/well, A549 and PC3 at 3000 cells/well, and […] at 10,000 cells/well. The compounds are diluted to final concentrations with 0.1% DMSO. Prior to dispensing the compounds onto cells, fresh 5% media is placed into the wells. Administration of compounds occurs 24 hours after seeding into the fresh media. Cell viability may be evaluated using ATP-LITE reagent (PerkinElmer) after 72 hours of treatment. Data are normalized to the DMSO control-treated cells using Prism version 5.01 (Graphpad Software).
as §1

H1299 cell line = assay: ATP-LITE cell viability assay, H1299; format: cell-based; conditions: Homo sapiens, NCI-H1299, 72 h, 3 days
Procedure: as §2, §1

primary CLL cells = assay: Annexin-V apoptosis assay, primary CLL cells; format: cell-based, human
Procedure: (§4) The apoptotic activity of the compounds against RS4;11, BP3 and primary CLL cells was assessed by staining with Annexin V-FITC and propidium iodide (PI). Cells were cultured in RPMI 1640 medium (Mediatech Inc., Herndon, Va. 20171) containing 10% fetal bovine serum (Mediatech Inc., Herndon, Va. 20171) and Penicillin/Streptomycin (Mediatech Inc., Herndon, Va. 20171). […] The percentage of viable cells was determined by FITC-Annexin V- and propidium iodide (PI)-labeling, using an Apoptosis Detection kit (BioVision Inc.), and analyzing stained cells by flow cytometry (FACSort; Bectin-Dickinson, Inc.; Mountain View, Calif.). Cells that were annexin-V-negative and PI-negative were considered viable.

RS4;11 cell line = assay: Annexin V-FITC and propidium iodide apoptosis assay, RS4;11; format: cell-based; conditions: Homo sapiens, RS4-11, 24 h, 1 day
Procedure: as §4

[2] = In vitro microsomal stability; conditions: Table 4
Excerpt: as §3

BP3 cell line = assay: Annexin V-FITC and propidium iodide apoptosis assay, BP3; format: cell-based, human; conditions: for EC50: Homo sapiens, BP3, 24 h, Annexin V-FITC and propidium iodide assay, 1 day
Procedure: as §4

EC50 values of FIG. 3(B) = conditions: test not named
PPC-1 xenograft tumors = assay: PPC-1 tumor xenograft study in nude mice
Procedure: Female 6-week-old nude mice were purchased from Charles River Laboratories. 5×10^6 PCC-1 cells suspended in 0.2 ml PBS were injected subcutaneously into a flank region of each nude mouse. Tumor bearing mice were size matched (200 mm^3) into treatment and control group, ear tagged, and monitored individually. Tumor volume was measured two to three times weekly by digital calipers (volume=length×width^2/2). All studies use 6 mice per group. […] Control mice received saline. The injections were given three times in first week, twice in second week and once in third week and a total of six injections were administered during the experiment. When all tumors of the control group exceed 2000 mm^3 in volume, the animal experiment was terminated. Tumor growth inhibition ratios (T/C %) were calculated by dividing the average tumor volume in the treatment group by the average tumor volume in the control group.

[3] = administered orally (6a); cited from earlier work

| Structure (SMILES) | Plasma Stability (T = 40 mins) [1] | EC50 (PC3 cell line) | EC50 (H460 cell line) | EC50 (H1299 cell line) | other results |
| --- | --- | --- | --- | --- | --- |
| CCc1ccc(CCNC(=O)c2c(O)c(O)cc3c2C(=O)C(C)=C(C2=C(C)C(=O)c4c(cc(O)c(O)c4C(=O)NCCc4ccc(CC)cc4)C2=O)C3=O)cc1 [Compound 8c, N^5,N^5′-Bis(4-ethylphenethyl)-6,6′,7,7′-tetrahydroxy-3,3′-dimethyl-1,1′,4,4′-tetraoxo-1,1′,4,4′-tetrahydro-2,2′-binaphthyl-5,5′-dicarboxamide] |  |  |  |  | IC50 (Bcl-XL): 160 to 630 nM |
| CC1=C(C2=C(C)C(=O)c3c(cc(O)c(O)c3Cc3ccccc3)C2=O)C(=O)c2cc(O)c(O)c(Cc3ccccc3)c2C1=O [Compound 6i, 5,5′-dibenzyl-6,6′,7,7′-tetrahydroxy-3,3′-dimethyl-2,2′-binaphthyl-1,1′,4,4′-tetraone] | 95% |  |  |  | IC50 (Bcl-XL): 160 to 630 nM; degraded after 1 hour incubation in rat plasma [1]: 5% |
| CC1=C(C2=C(C)C(=O)c3c(cc(O)c(O)c3CC3CCCC3)C2=O)C(=O)c2cc(O)c(O)c(CC3CCCC3)c2C1=O [Compound 6c, 5,5′-bis(cyclopentylmethyl)-6,6′,7,7′-tetrahydroxy-3,3′-dimethyl-2,2′-binaphthyl-1,1′,4,4′-tetraone] |  | 5500 ± 740 nM | 700 ± 340 nM | 2320 ± 510 nM | LD50 primary CLL samples (primary CLL cells; comparison of 6c with 6a): 6.5 µM |
| CC1=C(C2=C(C)C(=O)c3c(cc(O)c(O)c3CCCc3ccccc3)C2=O)C(=O)c2cc(O)c(O)c(CCCc3ccccc3)c2C1=O [Compound 6g, 6,6′,7,7′-tetrahydroxy-3,3′-dimethyl-5,5′-bis(3-phenylpropyl)-2,2′-binaphthyl-1,1′,4,4′-tetraone] | 87% | 1300 ± 180 nM | 920 ± 90 nM | 1530 ± 410 nM | EC50 (RS4;11 cell line): 3830 ± 700 nM; Microsomal Stability (T = 40 mins) [2]: 88% |
| CC1=C(C2=C(C)C(=O)c3c(cc(O)c(O)c3C(=O)Cc3ccccc3)C2=O)C(=O)c2cc(O)c(O)c(C(=O)Cc3ccccc3)c2C1=O [Compound 7, 6,6′,7,7′-Tetrahydroxy-3,3′-dimethyl-5,5′-bis(2-phenylacetyl)-2,2′-binaphthyl-1,1′,4,4′-tetraone] |  | 5440 ± 240 nM | 7380 ± 1070 nM | > 30000 nM | EC50 (BP3 cell line): 9580 ± 4160 nM; IC50 (Bcl-XL): 160 to 630 nM |
| CC1=C(C2=C(C)C(=O)c3c(cc(O)c(O)c3CCc3ccccc3)C2=O)C(=O)c2cc(O)c(O)c(CCc3ccccc3)c2C1=O [Compound 6e, 6,6′,7,7′-tetrahydroxy-3,3′-dimethyl-5,5′-diphenethyl-2,2′-binaphthyl-1,1′,4,4′-tetraone] | 81% | 1400 ± 140 nM | 1040 ± 130 nM | 850 ± 360 nM | EC50 (BP3 cell line): 8720 ± 2530 nM; EC50 (RS4;11 cell line): 4750 ± 10 nM; Microsomal Stability (T = 40 mins) [2]: 89% |
| Cc1cc2c(C(=O)Cc3ccccc3)c(O)c(O)cc2c(O)c1-c1c(C)cc2c(C(=O)Cc3ccccc3)c(O)c(O)cc2c1O [BI79D10] |  |  |  |  | EC50 (EC50 values of FIG. 3(B)): 360 nM |
| CC1=C(C2=C(C)C(=O)c3c(cc(O)c(O)c3CCc3ccc(OC(F)(F)F)cc3)C2=O)C(=O)c2cc(O)c(O)c(CCc3ccc(OC(F)(F)F)cc3)c2C1=O [Compound 6j, 6,6′,7,7′-tetrahydroxy-3,3′-dimethyl-5,5′-bis(4-(trifluoromethoxy)phenethyl)-2,2′-binaphthyl-1,1′,4,4′-tetraone] |  | 8990 ± 2490 nM | 1440 ± 200 nM | 2380 ± 210 nM |  |
| CC1=C(C2=C(C)C(=O)c3c(cc(O)c(O)c3Cc3ccc(Cl)cc3)C2=O)C(=O)c2cc(O)c(O)c(Cc3ccc(Cl)cc3)c2C1=O [Compound 6l, 5,5′-bis(4-chlorobenzyl)-6,6′,7,7′-tetrahydroxy-3,3′-dimethyl-2,2′-binaphthyl-1,1′,4,4′-tetraone] |  |  |  |  | IC50 (Bcl-XL): 160 to 630 nM |
| CC1=C(C2=C(C)C(=O)c3c(cc(O)c(O)c3C(=O)NCc3cccc(C)c3)C2=O)C(=O)c2cc(O)c(O)c(C(=O)NCc3cccc(C)c3)c2C1=O [Compound 8b, 6,6′,7,7′-tetrahydroxy-3,3′-dimethyl-N^5,N^5′-bis(3-methylbenzyl)-1,1′,4,4′-tetraoxo-1,1′,4,4′-tetrahydro-2,2′-binaphthyl-5,5′-dicarboxamide] |  | 5440 ± 340 nM | 6160 ± 1480 nM | > 30000 nM |  |
| Cc1cc2c(C(C)C)c(O)c(O)c(C=O)c2c(O)c1-c1c(C)cc2c(C(C)C)c(O)c(O)c(C=O)c2c1O [Gossypol, 1,1′,6,6′,7,7′-Hexahydroxy-5,5′-diisopropyl-3,3′-dimethyl-2,2′-binaphthyl-8,8′-dicarboxaldehyde] |  |  |  |  | mortality in first week (PPC-1 xenograft tumors; 25 mg/kg, i.p.): died |
| CC1=C(C2=C(C)C(=O)c3c(cc(O)c(O)c3CCCc3ccc(F)cc3)C2=O)C(=O)c2cc(O)c(O)c(CCCc3ccc(F)cc3)c2C1=O [Compound 6k, 5,5′-bis(3-(4-fluorophenyl)propyl)-6,6′,7,7′-tetrahydroxy-3,3′-dimethyl-2,2′-binaphthyl-1,1′,4,4′-tetraone] |  | 2620 ± 310 nM | 1480 ± 20 nM | 1910 ± 170 nM |  |
| CN(C)CC[C@H](CSc1ccccc1)Nc1ccc(S(=O)(=O)NC(=O)c2ccc(N3CCN(Cc4ccccc4-c4ccc(Cl)cc4)CC3)cc2)cc1[N+](=O)[O-] [ABT-737, reference compound] |  |  |  |  | cell (cytotoxic) activity against BP3 cell lines (BP3 cell line; result in words): no cell activity; also recorded: no cytotoxic activity |
| CC1=C(C2=C(C)C(=O)c3c(cc(O)c(O)c3CCC(C)(C)c3ccccc3)C2=O)C(=O)c2cc(O)c(O)c(CCC(C)(C)c3ccccc3)c2C1=O [Compound 6h, 6,6′,7,7′-tetrahydroxy-3,3′-dimethyl-5,5′-bis(3-methyl-3-phenylbutyl)-2,2′-binaphthyl-1,1′,4,4′-tetraone] |  | 2000 ± 170 nM | 1620 ± 160 nM | 2160 ± 270 nM |  |
| CC1=C(C2=C(C)C(=O)c3c(cc(O)c(O)c3CCC3CCCCC3)C2=O)C(=O)c2cc(O)c(O)c(CCC3CCCCC3)c2C1=O [Compound 6d, 5,5′-bis(2-cyclohexylethyl)-6,6′,7,7′-tetrahydroxy-3,3′-dimethyl-2,2′-binaphthyl-1,1′,4,4′-tetraone] | 74% | 2400 ± 240 nM | 2200 ± 760 nM | 1320 ± 300 nM | Microsomal Stability (T = 40 mins) [2]: 98% |
| CC1=C(C2=C(C)C(=O)c3c(cc(O)c(O)c3CCc3ccc(C)cc3)C2=O)C(=O)c2cc(O)c(O)c(CCc3ccc(C)cc3)c2C1=O [Compound 6f, 6,6′,7,7′-tetrahydroxy-3,3′-dimethyl-5,5′-bis(4-methylphenethyl)-2,2′-binaphthyl-1,1′,4,4′-tetraone] | 86% |  |  |  | LD50 primary CLL samples (primary CLL cells; six CLL samples from six different patients): 1.0 to 16.9 µM; LD50 primary CLL samples (primary CLL cells; two primary CLL samples, one day Annexin-V apoptosis assay): 10 µM and 15 µM; degraded after 1 hour incubation in rat plasma [1]: 14%; average body weight losses during the treatment (PPC-1 xenograft tumors; 50 mg/kg i.p.): 6.8%; signs of toxicity (PPC-1 xenograft tumors; 50 mg/kg i.p.): no observable signs of toxicity; weight loss in first week (PPC-1 xenograft tumors; 50 mg/kg i.p. three times in first week): ~5% |
| CC1=C(C2=C(C)C(=O)c3c(cc(O)c(O)c3Cc3ccc(-c4ccccc4)cc3)C2=O)C(=O)c2cc(O)c(O)c(Cc3ccc(-c4ccccc4)cc3)c2C1=O [Compound 6m, 5,5′-bis(biphenyl-4-ylmethyl)-6,6′,7,7′-tetrahydroxy-3,3′-dimethyl-2,2′-binaphthyl-1,1′,4,4′-tetraone] |  | 2970 ± 980 nM | 980 ± 150 nM | 10300 ± 3840 nM |  |
| Cc1cc2c(C(C)C)c(O)c(O)c(C=O)c2c(O)c1-c1c(C)cc2c(C(C)C)c(O)c(O)c(C=O)c2c1O [(−) 1] |  |  |  |  | maximum tolerated dose (MTD) [3]: 50 mg/kg |
| CC1=C(C2=C(C)C(=O)c3c(cc(O)c(O)c3C(=O)NCC(C)c3ccccc3)C2=O)C(=O)c2cc(O)c(O)c(C(=O)NCC(C)c3ccccc3)c2C1=O (centres unmarked) [Compound 8a, 6,6′,7,7′-Tetrahydroxy-3,3′-dimethyl-1,1′,4,4′-tetraoxo-N^5,N^5′-bis(2-phenylpropyl)-1,1′,4,4′-tetrahydro-2,2′-binaphthyl-5,5′-dicarboxamide] | 91% |  |  | > 30000 nM | IC50 (Bcl-XL): 160 to 630 nM; Microsomal Stability (T = 40 mins) [2]: 71% |
